# Data published in patent US11040954B1, “CXCR3 receptor agonists” (RECEPTOS LLC, priority 2016, dated 2021).
# Like-named read-outs stand apart in the source and are kept apart here.
# What was measured:
# [1] = target: T1, CXCR3 (Homo sapiens, UniProt P49682); experiment: CXCR3 cAMP agonist assay (cAMP Hunter CHOK1 CXCR3 Gi cell line, forskolin-stimulated, HitHunter cAMP detection); type: cell-based; details: cAMP Hunter CHOK1 CXCR3 Gi cells, 20 μM forskolin, 30 minutes; read-out: Activity (CXCR3 cAMP agonist assay compound EC50)
# T1 construct: host or cells: CHO-K1 (cAMP Hunter CHOK1 CXCR3 Gi cell line)
# T1 sequence (P49682 1-368): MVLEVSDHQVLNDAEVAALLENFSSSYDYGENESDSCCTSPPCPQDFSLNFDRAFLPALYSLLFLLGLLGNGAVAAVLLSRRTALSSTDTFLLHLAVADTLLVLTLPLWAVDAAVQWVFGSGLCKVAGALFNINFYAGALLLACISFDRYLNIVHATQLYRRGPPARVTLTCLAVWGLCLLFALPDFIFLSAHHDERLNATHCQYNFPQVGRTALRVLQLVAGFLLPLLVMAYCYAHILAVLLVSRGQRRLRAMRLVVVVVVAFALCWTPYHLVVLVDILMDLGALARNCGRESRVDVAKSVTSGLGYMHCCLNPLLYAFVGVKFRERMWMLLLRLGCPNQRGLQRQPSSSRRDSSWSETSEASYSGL
# Procedure, shortened: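 Agonist activity was measured as suppression of forskolin (20 μM)-induced cAMP, read by luminescent enzyme-fragment complementation with a cAMP standard curve and CXCL11 defining full efficacy. Assay used 50,000 CXCR3 Gi CHOK1 cells/well in pH 7.4 HEPES-buffered HBSS with 0.1% BSA, compound 0-10 μM over 12 points, 30 min incubation.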
# [2] = Mouse pharmacokinetics after oral gavage, plasma drug concentration by LC-MS/MS (C57BL/6); type: in vivo, C57bl/6 mice; details: for Cmax / AUC(0-t): mouse, plasma; for AUC(0-t): read-out: AUC0-24
# Method: Compounds were formulated in 5% DMSO/5% Tween20 in H2O, sonicated, vortexed, and put on stir plate overnight at a dose volume of 10 mL/kg. Balb/C (Jackson laboratories) or C57bl/6 (Taconic Biosciences) mice (8-9 weeks old) were acclimated to the colony for 3 days prior to dosing. Water and food were provided ab libitum. Compounds were administered by oral gavage. Groups of six animals received 3 to 4 bleeds per day with one terminal bleed. The time points were 30 min, 1 h, 2 h, 4 h, 6 h, 8 h, 24 h. Plasma was collected via centrifugation and analyzed for drug concentrations.
# Preparation of Study Samples and Standards for Analysis by LC-MS/MS
# 50 μl of plasma was aliquoted into a 96 well deep-well polypropylene plate (2 mL) to which 5 μL of DMSO was added. For standards, 5 μl of test compound in DMSO at […] the standard concentration was added to 50 μl of blank matrix in a 96 well deep-well polypropylene plate. For example, for a 300 nM standard, the 10× DMSO concentration was 3 μM. Study samples that require dilution are diluted with the appropriate blank matrix. For example, for a 10× dilution, 5 μL of study sample is added to 45 μl of blank matrix. Protein was precipitated from study samples and standards with the addition of 150 μl of acetonitrile. After a clean plate map was placed firmly over the top of the 96-well plate, a bench top shaker was used for 1 min to ensure complete precipitation of protein. The precipitated protein was pelleted by centrifuging for 3,000 rpm for 10 min at 20° C. and then the clear supernatant was transferred to a clean 96-well plate and spun again under the same conditions in order to pellet any solid material that may have been transferred.
# Analysis of Study Samples and Standards with LCMS with MRM Detection
# An Agilent 1200 HPLC with binary pump and a Leap CTC with fast wash autosampler were used to introduce samples to the mass spectrometer.
# The column used was a Phenomenex Luna C8 30×2 mm 5 μm with a security guard. Mass detection was performed by an Applied Biosystems 4000 Qtrap in MRM mode and ionization was achieved by positive electrospray with a source temperature of 500° C. The ion transitions, […] potential and collision energies were dependent on the specific analyte.
# Prepared samples were usually analyzed in reverse chronological order with bracketing standard curves. Typically at least 6 standards were used for quantification with a percent accuracy of +/−15% for all standards except at the LLOQ where a percent accuracy of +/−20% was allowed. The concentration time profile was fit using a one compartment model for the applicable mode of dosing using Phoenix WinNonLin 6.4.
EC50 [1],"apparent oral clearance (CL/F) ([2]; C57BL/6, 60 mg/kg, female mice)","Cmax ([2]; C57BL/6, 60 mg/kg, female mice)","AUC(0-t) ([2]; C57BL/6, 60 mg/kg, female mice)","Cmax ([2]; C57BL/6, 10 mg/kg, male mice)","AUC(0-t) ([2]; C57BL/6, 10 mg/kg, male mice)","apparent oral clearance (CL/F) ([2]; C57BL/6, 10 mg/kg, male mice)","apparent oral clearance (CL/F) ([2]; C57BL/6, 60 mg/kg, male mice)","Cmax ([2]; C57BL/6, 60 mg/kg, male mice)","AUC(0-t) ([2]; C57BL/6, 60 mg/kg, male mice)","AUC0-24 ([2]; C57BL/6, 60 mg/kg, female mice)",Structure (SMILES)
< 0.05 µM,565 mL/min/kg,1200 nM,2.9 µM·h,–,–,–,–,–,–,–,"Cc1cc(NC(=O)[C@H](CCN)NC(=O)[C@@H]2Cc3ccccc3CN2C(=O)CCC(=O)N2CCCCC2(C)C)c(C#N)cc1Cl [Compound 18-1, (S)—N—((S)-4-amino-1-((4-chloro-2-cyano-5-methylphenyl)amino)-1-oxobutan-2-yl)-2-(4-(2,2-dimethylpiperidin-1-yl)-4-oxobutanoyl)-1,2,3,4-tetrahydroisoquinoline-3-carboxamide]"
< 0.05 µM,393 mL/min/kg,1500 nM,4.4 µM·h,–,–,–,–,–,–,–,N#Cc1cc2c(cc1NC(=O)[C@H](CCN)NC(=O)[C@@H]1Cc3ccccc3CN1C(=O)CCC(=O)c1ccccc1)CCC2 [Compound 2-57]
< 0.05 µM,66 mL/min/kg,7600 nM,27.5 µM·h,–,–,–,–,–,–,–,NCC[C@H](NC(=O)[C@@H]1Cc2ccccc2CN1C(=O)CCC(=O)c1ccccc1)C(=O)Nc1ccc2c(c1)CCC2 [Compound 2-47]
< 0.05 µM,–,370 nM,–,–,–,–,–,–,–,BQL,Cc1cc(NC(=O)[C@H](CCN)NC(=O)[C@@H]2Cc3ccccc3CN2C(=O)CCC(=O)N2CCN(C)C[C@H]2C)ccc1Cl [Compound 12-100]

# More lines, now with the values behind:
Structure (SMILES),EC50 [1],"apparent oral clearance (CL/F) ([2]; C57BL/6, 60 mg/kg, female mice)","Cmax ([2]; C57BL/6, 60 mg/kg, female mice)","AUC(0-t) ([2]; C57BL/6, 60 mg/kg, female mice)","Cmax ([2]; C57BL/6, 10 mg/kg, male mice)","AUC(0-t) ([2]; C57BL/6, 10 mg/kg, male mice)","apparent oral clearance (CL/F) ([2]; C57BL/6, 10 mg/kg, male mice)","apparent oral clearance (CL/F) ([2]; C57BL/6, 60 mg/kg, male mice)","Cmax ([2]; C57BL/6, 60 mg/kg, male mice)","AUC(0-t) ([2]; C57BL/6, 60 mg/kg, male mice)","AUC0-24 ([2]; C57BL/6, 60 mg/kg, female mice)"
CC1(C)CCN(C(=O)CCC(=O)N2Cc3ccccc3C[C@H]2C(=O)N[C@@H](CCN)C(=O)Nc2ccc(Cl)c(Cl)c2F)C1 [Compound 15-2],< 0.05 µM,347 mL/min/kg,1800 nM,4.6 µM·h,–,–,–,–,–,–,–
Cc1cc(NC(=O)[C@H](CCCCN)NC(=O)[C@@H]2Cc3ccccc3CN2C(=O)CCC(=O)c2ccccc2)ccc1Cl [Compound 1-14],< 0.05 µM,–,–,–,6 nM,0.011 µM·h,–,–,–,–,–
O=C(CCC(=O)N1Cc2ccccc2C[C@H]1C(=O)NC1(C(=O)Nc2ccc(Cl)c(Cl)c2F)CCNCC1)c1ccccc1 [Compound 4-14],< 0.05 µM,16 mL/min/kg,5200 nM,99 µM·h,–,–,–,–,–,–,–
Cc1c(NC(=O)[C@H](CCN)NC(=O)[C@@H]2Cc3ccccc3CN2C(=O)CCC(=O)c2ccccc2)ccc(Cl)c1Cl [Compound 2-15],< 0.05 µM,–,–,–,970 nM,7.5 µM·h,37 mL/min/kg,–,–,–,–
Cc1c(Cl)ccc(NC(=O)[C@H](CCN)NC(=O)[C@@H]2Cc3ccccc3CN2C(=O)CCC(=O)N2CCCC23CCC3)c1Cl [Compound 15-48],< 0.05 µM,98 mL/min/kg,6700 nM,16.3 µM·h,–,–,–,–,–,–,–
Cc1cc(NC(=O)[C@@H](NC(=O)[C@@H]2Cc3ccccc3CN2C(=O)CCC(=O)c2ccccc2)C2CCN(C(C)C)CC2)ccc1Cl [Compound 8-2],< 0.05 µM,–,–,–,710 nM,2.3 µM·h,112 mL/min/kg,–,–,–,–
Cc1cccc(NC(=O)[C@H](CCN)NC(=O)[C@@H]2Cc3ccccc3CN2C(=O)CCC(=O)c2ccccc2)c1C [Compound 2-49],< 0.05 µM,131 mL/min/kg,7100 nM,14.1 µM·h,–,–,–,–,–,–,–
Cc1cc(NC(=O)C2(NC(=O)[C@@H]3Cc4ccccc4CN3C(=O)CCC(=O)c3ccccc3)CCNCC2)ccc1Cl [Compound 4-12],0.05 to 0.25 µM,–,–,–,3300 nM,9 µM·h,32 mL/min/kg,–,–,–,–
COc1cc(Cl)c(Cl)cc1NC(=O)[C@H](CCN)NC(=O)[C@@H]1Cc2ccccc2CN1C(=O)CCC(=O)c1ccccc1 [Compound 2-23],< 0.05 µM,–,–,–,–,–,–,88 mL/min/kg,3900 nM,19 µM·h,–
Cc1c(Cl)cc(NC(=O)[C@H](CCN)NC(=O)[C@@H]2Cc3ccccc3CN2C(=O)CCC(=O)c2ccccc2)cc1Cl [Compound 27-3],< 0.05 µM,143 mL/min/kg,5100 nM,11.7 µM·h,–,–,–,–,–,–,–
